ChEMBL document CHEMBL4507293 (2021)
pKi: −log10 of the molar value.

Legend:
[1] = target: cGMP-specific 3',5'-cyclic phosphodiesterase (Homo sapiens, UniProt O76074); experiment: Biochemical assay (PDE5A)
[2] = test system: Tyrosine-protein kinase ABL1 (Homo sapiens), P00519 [Q252H]; conditions: Compound concentration 100.0 nM
[3] = test system: Tyrosine-protein kinase ABL1 (Homo sapiens), P00519 [Y253F]; conditions: Compound concentration 100.0 nM
[4] = target: Tyrosine-protein kinase ABL1 (Homo sapiens) (UniProt P00519); conditions: Compound concentration 100.0 nM
[5] = target: Aurora kinase A (Homo sapiens) (UniProt O14965); conditions: Compound concentration 100.0 nM
[6] = target: Tyrosine-protein kinase BTK (Homo sapiens) (UniProt Q06187); conditions: Compound concentration 100.0 nM
[7] = target: Calcium/calmodulin-dependent protein kinase type II subunit gamma (Homo sapiens) (UniProt Q13555); conditions: Compound concentration 100.0 nM
Chain of Calcium/calmodulin-dependent protein kinase type II subunit gamma (Homo sapiens) (Q13555 whole entry): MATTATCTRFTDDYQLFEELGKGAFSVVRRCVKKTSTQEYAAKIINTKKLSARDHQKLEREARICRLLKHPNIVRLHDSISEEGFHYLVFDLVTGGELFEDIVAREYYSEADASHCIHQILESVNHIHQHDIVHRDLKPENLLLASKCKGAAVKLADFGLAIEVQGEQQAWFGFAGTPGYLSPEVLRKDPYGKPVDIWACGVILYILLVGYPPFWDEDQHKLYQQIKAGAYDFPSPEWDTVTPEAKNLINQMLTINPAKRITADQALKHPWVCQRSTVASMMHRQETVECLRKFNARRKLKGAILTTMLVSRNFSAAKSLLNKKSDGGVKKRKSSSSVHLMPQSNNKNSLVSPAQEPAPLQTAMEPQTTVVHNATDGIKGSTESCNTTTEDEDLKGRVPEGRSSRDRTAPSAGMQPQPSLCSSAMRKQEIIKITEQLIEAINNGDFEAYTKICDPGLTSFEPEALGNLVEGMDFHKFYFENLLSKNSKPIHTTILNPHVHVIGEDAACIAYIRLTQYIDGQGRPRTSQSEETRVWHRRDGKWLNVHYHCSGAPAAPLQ

[8] = target: Cyclin-dependent kinase-like 5 (Homo sapiens) (UniProt O76039); conditions: Compound concentration 100.0 nM
Chain of Cyclin-dependent kinase-like 5 (Homo sapiens) (O76039 whole entry): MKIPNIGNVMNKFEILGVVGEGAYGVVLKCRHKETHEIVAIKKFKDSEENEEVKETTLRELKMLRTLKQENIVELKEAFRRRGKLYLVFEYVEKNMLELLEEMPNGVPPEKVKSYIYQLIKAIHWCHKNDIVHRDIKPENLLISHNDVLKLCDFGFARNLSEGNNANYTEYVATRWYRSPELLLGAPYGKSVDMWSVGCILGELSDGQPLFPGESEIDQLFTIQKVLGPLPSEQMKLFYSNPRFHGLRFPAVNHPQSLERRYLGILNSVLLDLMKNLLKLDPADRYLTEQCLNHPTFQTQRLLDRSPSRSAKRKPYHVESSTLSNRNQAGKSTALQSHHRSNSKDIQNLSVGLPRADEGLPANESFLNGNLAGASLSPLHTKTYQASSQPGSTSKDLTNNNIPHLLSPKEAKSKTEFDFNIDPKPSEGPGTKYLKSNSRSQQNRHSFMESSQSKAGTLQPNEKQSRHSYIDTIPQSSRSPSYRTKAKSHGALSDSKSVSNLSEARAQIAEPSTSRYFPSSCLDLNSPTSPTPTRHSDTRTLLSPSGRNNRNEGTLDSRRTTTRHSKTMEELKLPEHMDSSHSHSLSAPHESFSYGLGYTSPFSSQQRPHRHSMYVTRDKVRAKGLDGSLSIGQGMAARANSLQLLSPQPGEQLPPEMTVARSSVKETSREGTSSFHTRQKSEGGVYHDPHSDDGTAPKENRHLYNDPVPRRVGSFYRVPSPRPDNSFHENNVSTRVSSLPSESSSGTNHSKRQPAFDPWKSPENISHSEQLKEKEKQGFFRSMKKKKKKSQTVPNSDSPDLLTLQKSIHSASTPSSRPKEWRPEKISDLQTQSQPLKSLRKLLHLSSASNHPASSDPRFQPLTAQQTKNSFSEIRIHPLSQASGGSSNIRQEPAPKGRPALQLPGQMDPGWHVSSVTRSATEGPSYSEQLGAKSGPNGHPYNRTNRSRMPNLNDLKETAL

[9] = target: Serine/threonine-protein kinase Chk1 (Homo sapiens) (UniProt O14757); conditions: Compound concentration 100.0 nM
[10] = target: Casein kinase I isoform epsilon (Homo sapiens) (UniProt P49674); conditions: Compound concentration 100.0 nM
[11] = target: Mitogen-activated protein kinase kinase kinase 12 (Homo sapiens) (UniProt Q12852); conditions: Compound concentration 100.0 nM
[12] = target: Dual specificity tyrosine-phosphorylation-regulated kinase 1B (Homo sapiens) (UniProt Q9Y463); conditions: Compound concentration 100.0 nM
[13] = target: Ephrin type-A receptor 4 (Homo sapiens) (UniProt P54764); conditions: Compound concentration 100.0 nM
[14] = target: Leukocyte tyrosine kinase receptor (Homo sapiens) (UniProt P29376); conditions: Compound concentration 100.0 nM
[15] = target: Mitogen-activated protein kinase kinase kinase kinase 3 (Homo sapiens) (UniProt Q8IVH8); conditions: Compound concentration 100.0 nM
[16] = target: Mitogen-activated protein kinase kinase kinase kinase 4 (Homo sapiens) (UniProt O95819); conditions: Compound concentration 100.0 nM
[17] = target: Serine/threonine-protein kinase MARK1 (Homo sapiens) (UniProt Q9P0L2); conditions: Compound concentration 100.0 nM
[18] = target: Myosin light chain kinase (Homo sapiens) (UniProt Q32MK0); conditions: Compound concentration 100.0 nM
[19] = target: Mitogen-activated protein kinase kinase kinase 10 (Homo sapiens) (UniProt Q02779); conditions: Compound concentration 100.0 nM
[20] = target: Myosin light chain kinase, smooth muscle (Homo sapiens) (UniProt Q15746); conditions: Compound concentration 100.0 nM
Chain of Myosin light chain kinase, smooth muscle (Homo sapiens) (Q15746 whole entry): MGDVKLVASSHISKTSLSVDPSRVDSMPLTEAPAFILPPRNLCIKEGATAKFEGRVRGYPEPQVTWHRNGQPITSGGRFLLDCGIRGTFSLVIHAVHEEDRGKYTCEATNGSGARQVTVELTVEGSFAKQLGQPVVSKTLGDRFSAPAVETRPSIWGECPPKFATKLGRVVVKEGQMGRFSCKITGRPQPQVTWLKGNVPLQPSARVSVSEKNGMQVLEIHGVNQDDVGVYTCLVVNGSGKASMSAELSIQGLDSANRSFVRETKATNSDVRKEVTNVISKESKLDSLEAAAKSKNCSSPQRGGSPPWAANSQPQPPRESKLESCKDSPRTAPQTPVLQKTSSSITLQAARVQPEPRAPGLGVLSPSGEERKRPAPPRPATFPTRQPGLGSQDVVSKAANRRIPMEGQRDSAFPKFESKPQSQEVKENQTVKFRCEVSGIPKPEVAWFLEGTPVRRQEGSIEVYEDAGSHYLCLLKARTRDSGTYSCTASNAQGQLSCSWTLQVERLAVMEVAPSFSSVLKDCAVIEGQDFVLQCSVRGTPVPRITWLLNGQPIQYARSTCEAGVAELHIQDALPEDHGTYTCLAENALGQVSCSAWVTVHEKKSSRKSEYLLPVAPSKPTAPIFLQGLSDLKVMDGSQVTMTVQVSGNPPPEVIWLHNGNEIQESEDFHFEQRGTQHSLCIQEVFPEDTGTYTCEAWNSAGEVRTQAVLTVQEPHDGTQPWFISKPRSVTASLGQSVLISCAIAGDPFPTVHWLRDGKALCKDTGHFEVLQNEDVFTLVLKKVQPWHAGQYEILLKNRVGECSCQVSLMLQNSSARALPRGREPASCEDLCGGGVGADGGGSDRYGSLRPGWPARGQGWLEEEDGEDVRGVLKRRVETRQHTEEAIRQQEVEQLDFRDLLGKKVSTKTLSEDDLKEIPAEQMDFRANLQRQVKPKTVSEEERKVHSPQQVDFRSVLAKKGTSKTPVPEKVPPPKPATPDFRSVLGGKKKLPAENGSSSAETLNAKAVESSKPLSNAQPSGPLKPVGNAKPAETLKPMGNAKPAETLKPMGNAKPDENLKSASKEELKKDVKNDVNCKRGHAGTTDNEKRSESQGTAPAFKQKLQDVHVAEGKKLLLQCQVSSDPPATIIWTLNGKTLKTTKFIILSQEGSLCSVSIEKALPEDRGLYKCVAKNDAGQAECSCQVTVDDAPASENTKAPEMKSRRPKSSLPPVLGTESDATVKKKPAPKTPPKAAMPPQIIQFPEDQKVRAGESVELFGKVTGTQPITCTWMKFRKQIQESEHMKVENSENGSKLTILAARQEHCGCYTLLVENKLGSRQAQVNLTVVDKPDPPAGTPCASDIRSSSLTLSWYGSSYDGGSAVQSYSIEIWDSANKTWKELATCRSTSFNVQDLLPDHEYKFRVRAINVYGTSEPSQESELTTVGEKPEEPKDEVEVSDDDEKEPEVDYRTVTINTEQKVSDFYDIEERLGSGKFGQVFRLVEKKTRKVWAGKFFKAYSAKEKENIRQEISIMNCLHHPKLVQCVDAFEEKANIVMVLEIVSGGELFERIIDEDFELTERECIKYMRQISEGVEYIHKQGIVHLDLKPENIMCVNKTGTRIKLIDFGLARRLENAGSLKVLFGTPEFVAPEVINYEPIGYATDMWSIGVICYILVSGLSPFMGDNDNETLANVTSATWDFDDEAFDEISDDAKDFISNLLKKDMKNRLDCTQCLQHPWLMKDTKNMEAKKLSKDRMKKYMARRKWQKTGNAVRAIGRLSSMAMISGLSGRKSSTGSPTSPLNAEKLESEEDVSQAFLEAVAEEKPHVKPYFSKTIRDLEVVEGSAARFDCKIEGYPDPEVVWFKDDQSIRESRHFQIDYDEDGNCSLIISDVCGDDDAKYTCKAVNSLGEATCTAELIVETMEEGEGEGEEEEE

[21] = target: Serine/threonine-protein kinase Nek3 (Homo sapiens) (UniProt P51956); conditions: Compound concentration 100.0 nM
[22] = target: Mitogen-activated protein kinase 13 (Homo sapiens) (UniProt O15264); conditions: Compound concentration 100.0 nM
[23] = target: Serine/threonine-protein kinase pim-1 (Homo sapiens) (UniProt P11309); conditions: Compound concentration 100.0 nM
Chain of Serine/threonine-protein kinase pim-1 (Homo sapiens) (P11309 whole entry, looked up): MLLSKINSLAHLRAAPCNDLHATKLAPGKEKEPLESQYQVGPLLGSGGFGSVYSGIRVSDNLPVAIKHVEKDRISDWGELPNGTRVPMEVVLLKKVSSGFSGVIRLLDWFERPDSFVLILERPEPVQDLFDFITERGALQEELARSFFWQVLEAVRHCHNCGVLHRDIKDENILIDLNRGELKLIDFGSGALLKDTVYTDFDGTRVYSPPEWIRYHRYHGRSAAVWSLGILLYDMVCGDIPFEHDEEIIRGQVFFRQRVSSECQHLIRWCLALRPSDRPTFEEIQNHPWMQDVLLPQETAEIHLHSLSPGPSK

[24] = target: Serine/threonine-protein kinase N2 (Homo sapiens) (UniProt Q16513); conditions: Compound concentration 100.0 nM
[25] = target: Serine/threonine-protein kinase PknB (Mycobacterium tuberculosis) (UniProt P9WI81); conditions: Compound concentration 100.0 nM
[26] = target: Interferon-induced, double-stranded RNA-activated protein kinase (Homo sapiens) (UniProt P19525); conditions: Compound concentration 100.0 nM
[27] = test system: Proto-oncogene tyrosine-protein kinase receptor Ret (Homo sapiens), P07949 [V804M]; conditions: Compound concentration 100.0 nM
[28] = target: Serine/threonine-protein kinase SBK1 (Homo sapiens) (UniProt Q52WX2); conditions: Compound concentration 100.0 nM
[29] = target: Serine/threonine-protein kinase SIK2 (Homo sapiens) (UniProt Q9H0K1); conditions: Compound concentration 100.0 nM
Chain of Serine/threonine-protein kinase SIK2 (Homo sapiens) (Q9H0K1 whole entry, looked up): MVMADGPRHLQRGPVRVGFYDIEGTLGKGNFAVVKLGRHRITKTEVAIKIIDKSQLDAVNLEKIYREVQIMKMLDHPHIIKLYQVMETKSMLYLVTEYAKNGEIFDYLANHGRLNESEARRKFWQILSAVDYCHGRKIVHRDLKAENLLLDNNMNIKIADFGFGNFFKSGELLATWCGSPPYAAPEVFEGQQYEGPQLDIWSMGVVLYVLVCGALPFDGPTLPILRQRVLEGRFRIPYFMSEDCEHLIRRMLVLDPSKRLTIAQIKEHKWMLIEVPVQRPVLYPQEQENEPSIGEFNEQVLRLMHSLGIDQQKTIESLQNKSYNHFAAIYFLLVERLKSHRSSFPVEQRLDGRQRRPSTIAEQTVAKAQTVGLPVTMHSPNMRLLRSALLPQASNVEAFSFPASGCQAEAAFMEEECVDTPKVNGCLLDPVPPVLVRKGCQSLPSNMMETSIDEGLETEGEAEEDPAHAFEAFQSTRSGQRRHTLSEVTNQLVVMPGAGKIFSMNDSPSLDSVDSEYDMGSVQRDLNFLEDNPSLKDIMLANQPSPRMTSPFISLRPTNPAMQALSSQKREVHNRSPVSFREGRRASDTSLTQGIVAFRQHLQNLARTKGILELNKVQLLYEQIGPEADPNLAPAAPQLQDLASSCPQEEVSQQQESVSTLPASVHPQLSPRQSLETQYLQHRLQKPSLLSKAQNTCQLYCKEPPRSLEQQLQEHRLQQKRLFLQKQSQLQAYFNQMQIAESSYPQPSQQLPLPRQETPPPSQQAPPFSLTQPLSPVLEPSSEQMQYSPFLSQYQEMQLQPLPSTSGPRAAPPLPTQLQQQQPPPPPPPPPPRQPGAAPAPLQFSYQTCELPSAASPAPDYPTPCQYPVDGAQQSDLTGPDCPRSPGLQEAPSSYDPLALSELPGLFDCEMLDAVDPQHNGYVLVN

[30] = target: STE20-like serine/threonine-protein kinase (Homo sapiens) (UniProt Q9H2G2); conditions: Compound concentration 100.0 nM
[31] = target: SRSF protein kinase 2 (Homo sapiens) (UniProt P78362); conditions: Compound concentration 100.0 nM
[32] = target: Tyrosine-protein kinase Tec (Homo sapiens) (UniProt P42680); conditions: Compound concentration 100.0 nM
[33] = target: 5-hydroxytryptamine receptor 1E (Homo sapiens) (UniProt P28566); conditions: Compound concentration 10.0 uM
Chain of 5-hydroxytryptamine receptor 1E (Homo sapiens) (P28566 whole entry): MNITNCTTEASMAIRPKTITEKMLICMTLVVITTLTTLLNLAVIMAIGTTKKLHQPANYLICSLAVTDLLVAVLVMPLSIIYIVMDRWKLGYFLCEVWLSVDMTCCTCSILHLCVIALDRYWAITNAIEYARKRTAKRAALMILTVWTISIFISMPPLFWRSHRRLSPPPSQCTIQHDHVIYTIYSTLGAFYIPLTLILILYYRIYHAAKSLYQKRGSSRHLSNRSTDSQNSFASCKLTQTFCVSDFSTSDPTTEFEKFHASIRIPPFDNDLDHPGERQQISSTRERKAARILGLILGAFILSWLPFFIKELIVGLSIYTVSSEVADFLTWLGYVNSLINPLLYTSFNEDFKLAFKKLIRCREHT

[34] = target: Mu-type opioid receptor (Homo sapiens) (UniProt P35372); conditions: Compound concentration 10.0 uM
[35] = target: GABA-A receptor; anion channel (Rattus norvegicus) (UniProt O09028+P15431+P18506+P18508+P19969+P20236+P23574+P23576+P28471+P28473+P30191+P62813+P63079+P63138+Q91ZM7+Q9ES14); conditions: Compound concentration 10.0 uM
[36] = target: Muscarinic acetylcholine receptor M3 (Homo sapiens) (UniProt P20309); conditions: Compound concentration 10.0 uM
[37] = target: T1, Muscarinic acetylcholine receptor M5 (Homo sapiens) (UniProt P08912); conditions: Compound concentration 10.0 uM
T1 sequence (whole entry): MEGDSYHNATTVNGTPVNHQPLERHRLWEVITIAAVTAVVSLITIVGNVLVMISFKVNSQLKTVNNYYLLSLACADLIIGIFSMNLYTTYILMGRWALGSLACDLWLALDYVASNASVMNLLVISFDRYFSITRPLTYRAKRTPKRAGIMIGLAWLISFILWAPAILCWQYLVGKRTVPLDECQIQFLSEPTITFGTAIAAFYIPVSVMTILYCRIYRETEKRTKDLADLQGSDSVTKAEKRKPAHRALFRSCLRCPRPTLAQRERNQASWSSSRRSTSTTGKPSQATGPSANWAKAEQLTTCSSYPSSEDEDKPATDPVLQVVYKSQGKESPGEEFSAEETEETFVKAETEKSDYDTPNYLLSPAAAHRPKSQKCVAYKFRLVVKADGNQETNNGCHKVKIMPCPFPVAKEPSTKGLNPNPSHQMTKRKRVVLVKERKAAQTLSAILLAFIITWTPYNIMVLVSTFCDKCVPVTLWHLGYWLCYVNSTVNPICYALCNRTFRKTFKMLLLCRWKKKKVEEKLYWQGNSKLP

SMILES | Ki [1] | residual activity [2] [%] | residual activity [3] [%] | residual activity [4] [%] | residual activity [5] [%] | residual activity [6] [%] | residual activity [7] [%] | residual activity [8] [%] | residual activity [9] [%] | residual activity [10] [%] | residual activity [11] [%] | residual activity [12] [%] | residual activity [13] [%] | residual activity [14] [%] | residual activity [15] [%] | residual activity [16] [%] | residual activity [17] [%] | residual activity [18] [%] | residual activity [19] [%] | residual activity [20] [%] | pKi [1] | also measured
CC(C)CC(=O)N1CCc2nc(-c3ccc(Br)cc3)nc(N(C)Cc3ccccc3)c2C1 [THPP-1-NC] | 6890 nM (not active) | 53 | 97 | 66 | 72 | 100 | 100 | 100 | 100 | 100 | 90 | 77 | 100 | 91 | 95 | 84 | 92 | 98 | 96 | 86 |  | residual activity [21]: 100%; residual activity [22]: 100%; residual activity [23]: 100%; residual activity [24]: 80%; residual activity [25]: 97%; residual activity [26]: 100%; residual activity [27]: 82%; residual activity [28]: 100%; residual activity [29]: 100%; residual activity [30]: 100%; residual activity [31]: 100%; residual activity [32]: 100%; inhibition [33]: -5.76%; inhibition [34]: -0.75%; inhibition [35]: -4.66%; inhibition [36]: 13.5%; inhibition [37]: 7.59%
COCCOc1nc(-c2ccc(Cl)nc2)nc2c1CN(C(=O)c1ncn3ccccc13)CC2 [THPP-1] |  | 74 | 93 | 68 | 81 | 100 | 100 | 100 | 100 | 100 | 97 | 83 | 100 | 100 | 100 | 73 | 100 | 83 | 100 | 70 | 6.94 | residual activity [21]: 100%; residual activity [22]: 100%; residual activity [23]: 100%; residual activity [24]: 55%; residual activity [25]: 86%; residual activity [26]: 100%; residual activity [27]: 89%; residual activity [28]: 100%; residual activity [29]: 100%; residual activity [30]: 100%; residual activity [31]: 100%; residual activity [32]: 100%; inhibition [33]: 6.95%; inhibition [34]: -0.32%; inhibition [35]: 15%; inhibition [36]: 3.95%; inhibition [37]: 7.79%
